# According to paper PMC12648288, “Drastic Impact of Donor Substituents on Xanthenes in the PDT of Glioblastoma” (JACS Au, 2025):
# Read-outs that look alike come from different tables or passages of the source.
# Columns and labels:
# U118MG cells = assay: AO/EtBr staining for cell death; assay type: cell-based, human; details: IC50 concentration, after irradiation
# Protocol: (§1) The rapid mitochondrial disruption often shifts the balance toward irreversible cell death pathways. […] In this regard, acridine orange/ethidium bromide (AO/EtBr) staining was performed to detect cell death. […]
# (§2) Acridine Orange/Ethidium Bromide (AO/EtBr) staining for cell death
# (§3) Dual acridine orange/ethidium bromide (AO/EtBr) staining was performed to discriminate live, early apoptotic and/or necrotic cells on the basis of membrane permeability.1,2 U87MG and U118MG cells were seeded in 24-well plates at a density of 5 × 10⁴ cells/well and treated with the IC₅₀ concentrations of the photosensitizers NSeMorph and NSeAze. After irradiation, cells were rested at 37 °C for 20 minutes, followed by staining with AO (2.5 µg/ml) and EtBr (2.5 µg/ml) in serum-free DMEM […]
# (§4) under dark conditions for an additional 20-30 minutes. Subsequently, cells were washed with 1X PBS, and confocal images were taken at 500/525 nm (ex/em) for AO […]
# (§5) Ta b l e S3. Comparison of recently reported PSs for the treatment of glioblastoma multiforme.
# (§6) Photosensitizer Abs* Mwt IC (μM) Cell Line PI Ref. […]
# U87MG cells = assay: AO/EtBr staining for cell death; assay type: cell-based, human; details: IC50 concentration, after irradiation
# Protocol: as §1, §2, §3, §4, §5, §6
# [1] = test system: L929 healthy fibroblast cells; assay: MTT cell viability, dark and PDT; assay type: cell-based; details: Mus musculus
# Protocol: The time- and concentration-dependent effects of NSeAze and NSeMorph on glioblastoma cells were determined by using the MTT assay (Figure S7). In this regard, U118MG and U87MG cells were administered with NSeMorph (0.5–20 μM) and NSeAze (0.01–2.5 μM) for 24 h to evaluate their dark toxicity. Before PDT application, both cell lines were treated as indicated for 1 h and then exposed to 660 nm LED light for 2 and 1 h, respectively (Figure ). Following overnight incubation, the resulting cell viability was calculated and compared to the effect of both compounds in the absence of irradiation. […]
# Cell Culture and Treatment
# Human glioblastoma cell lines (U118MG and U87MG) and healthy mouse fibroblast cells (L929) were cultured in DMEM high glucose medium supplemented with 10% fetal bovine serum (FBS), 2 mM glutamine, 1% penicillin/stremptomycin, 0.5% amphotericin B, and incubated at 37 °C with 5% CO2. NSeMorph and NSeAze were dissolved in cell culture-grade DMSO and further diluted in complete medium for experimental use. For phototoxicity analysis, cells were administered with NSeMorph […]
# mW/cm2) irradiation for 2 h in NSeMorph-treated groups and 1 h in NSeAze-treated groups. Then, each group were incubated for further 24 h in the dark to allow for resting. On the other hand, the dark toxicity of both agents was detected following the same treatment under identical conditions without LED irradiation. To determine the involvement of distinct ROS types, cells were pretreated for 1 h with selective […]
# scavengers prior to photosensitizer exposure. The scavengers included NAC (5 mM), NaN3 (5 mM), histidine (5 mM), Tiron (100 µM), mannitol (25 mM) and Trolox (25 µM).
# Cell viability was then assessed following irradiation. For index calculations, all cells were treated with the increasing concentrations (0.5-500 µM) of NSeMorph and NSeAze for 24 h. Final DMSO concentrations were kept below 0.5% (v/v) in all […]
# PI=IC50, dark /IC50, light
# SI= IC50, light, healthy cells/IC50, light, cancer cells
# TI= IC50, dark, healthy cells/IC50, light, cancer cells
# The viability of cells treated with NSeMorph and NSeAze was determined with MTT (3-[4,5-dimethylthiazol-2-yl]-2,5-diphenyltetrazoliumbromide) assay. Following the administration of both compounds, the medium was discarded and cells were treated with fresh media containing MTT (0.5 mg/ml) for 2-4 h at 37 °C. Formazan crystals were then solubilized in 10% SDS in 0.01 N HCl, and absorbance was measured at 490 and 570 nm wavelength using microplate reader (Multiskan Sky, Thermo Scientific). Data were normalized to vehicle (DMSO)-treated controls. IC50 values were calculated using nonlinear regression analysis in GraphPad Prism 9.02 (GraphPad Software Inc.). All experiments were performed in technical and biological replicates
# [2] = Absorption and emission spectra, fluorescence quantum yield; assay type: physicochemical; details: for ε (M^–1 cm^–1) / λabs (nm) / λems (nm): In PBS (pH 7.4, 1% DMSO); for φF (%) fluorescence quantum yield: Reference: methylene blue in MeOH (φF = 23%)
# Protocol: First, the absorption and emission spectra of both PSs, NSeMorph and NSeAze, were recorded in PBS buffer (pH 7.4, 1% DMSO).
# Photophysical Characterization
# Fluorescence Quantum Yield
# Fluorescence quantum yields of the samples were investigated using a fluorescence spectrometer (FLS 1000, Edinburgh Instruments) equipped with an integrating sphere accessory. A continuous-wave xenon lamp served as the excitation source, and the emitted fluorescence was detected with a standard photomultiplier (PMT-900) covering a wavelength range of 200-800 nm. During measurements, the PMT was cooled to - 20 °C using a built-in housing to reduce undesired dark current noise.
# For quantum yield measurement, an integrating sphere (Edinburgh Instruments) was placed inside the spectrometer's sample compartment. The internal cavity of the sphere was coated with a PTFE-like material, enabling a reflectance of approximately […]
# respectively. The sphere had two ports positioned 90° apart. The excitation beam was directed to the sample through the excitation port, and the fluorescence was collected from the emission port. The excitation port of the sphere included a lens to effectively focus the beam on the sample, while the emission port was an open aperture.
# Prior to the experiments with the PSs, blank spectra were measured using the reference solvents (PBS, pH 7.4, 1% DMSO). For both measurements (blank and sample), two identical quartz cuvettes with equal volumes were used. Initially, the reference sample was placed inside the sphere, and the emission/excitation slits were adjusted to the excitation wavelength to ensure the PMT's response remained linear during measurements. To cover a scattering range, the emission scans started 20 nm below the actual excitation wavelengths and ended at 900 nm. Additionally, the step size and integration time of the measurements were set to 1 nm and 0.2 seconds, […]
# Upon completing all emission measurements of the samples and references, the quantum yields of the samples were determined using the Fluoracle software. The built-in analysis tool calculates the quantum yield (QY) as: […]
# where Es (EB) and Ss (SB) are the selected areas for the emitted and scattered signals
# [3] = L929, 1 h incubation, 660 nm LED 2 h (NSeMorph) or 1 h (NSeAze), read-out: IC50 (light)
# [4] = L929, dark, 24 h, read-out: IC50 (dark)
SMILES,Cell death type (AO/EtBr) (U118MG cells),Cell death type (AO/EtBr) (U87MG cells),"IC50 [1, 3]","IC50 [1, 4]",ε (M^–1 cm^–1) [2],λabs (nm) [2],λems (nm) [2],φF (%) fluorescence quantum yield [2]
c1cc2nc3ccc(=[N+]4CCC4)cc-3[se]c2cc1N1CCC1 [NSeAze],late apoptosis/necrosis,early apoptosis,< 1 µM,129 ± 5.1 µM,"15,300 M^–1 cm^–1",671 nm,695 nm,8.2%
c1cc2nc3ccc(=[N+]4CCOCC4)cc-3[se]c2cc1N1CCOCC1 [NSeMorph],early apoptotic pattern,early apoptosis,> 20 µM,> 500 µM,"16,600 M^–1 cm^–1",671 nm,717 nm,1.1%
